Laboratory results taken from US10952992B2, “Methods of treating intraocular pressure with activators of Tie-2” (Aerpio Pharmaceuticals, Inc., priority 2015, dated 2021).
Several values for one entry are separate records, joined by “and”; a condition that tells them apart may be missing. Equal entries are not always repeated. Structures can show the parent of a compound that is named as a salt.

Experiment: Example 2 iris, retina, choroid and cornea tissue concentrations
Format: in vivo, male New Zealand White rabbits
Conditions: for Choroid Conc. OS / Choroid Conc. OD: choroid homogenate; for Choroid Conc. OS / Choroid tissue Conc. OS / Cornea Conc. OS / Cornea tissue Conc. OS / Iris Conc. OS / Iris tissue Conc. OS / Retina Conc. OS / Retina tissue Conc. OS: left eye; for Choroid Conc. OS / Choroid Conc. OD / Choroid tissue Conc. OS / Choroid tissue Conc. OD / Cornea Conc. OS / Cornea Conc. OD / Cornea tissue Conc. OS / Cornea tissue Conc. OD / Iris Conc. OS / Iris Conc. OD / Iris tissue Conc. OS / Iris tissue Conc. OD / Retina Conc. OS / Retina Conc. OD / Retina tissue Conc. OS / Retina tissue Conc. OD: individual animals; for Choroid Conc. OS / Choroid Conc. OD / Choroid tissue Conc. Avg. / Choroid tissue Conc. OS / Choroid tissue Conc. OD / Cornea Conc. OS / Cornea Conc. OD / Cornea tissue Conc. Avg. / Cornea tissue Conc. OS / Cornea tissue Conc. OD / Iris Conc. OS / Iris Conc. OD / Iris tissue Conc. Avg. / Iris tissue Conc. OS / Iris tissue Conc. OD / Retina Conc. OS / Retina Conc. OD / Retina tissue Conc. Avg. / Retina tissue Conc. OS / Retina tissue Conc. OD: intravitreal 2.5 mg/eye (~1.55 mg/kg), Group 4; for Choroid Conc. OD / Choroid tissue Conc. OD / Cornea Conc. OD / Cornea tissue Conc. OD / Iris Conc. OD / Iris tissue Conc. OD / Retina Conc. OD / Retina tissue Conc. OD: right eye; for Choroid tissue Conc. Avg. / Cornea tissue Conc. Avg. / Iris tissue Conc. Avg. / Retina tissue Conc. Avg.: average; for Cornea Conc. OS / Cornea Conc. OD: cornea homogenate; for Iris Conc. OS / Iris Conc. OD: iris homogenate; for Retina Conc. OS / Retina Conc. OD: retina homogenate
Procedure: To measure the concentration of Compound 1 in plasma and ocular tissues following topical ocular, subcutaneous, and intravitreal administration, New Zealand White rabbits were administered Compound 1, and plasma and ocular samples were collected at pre-determined time points. Compound 1 formulations were prepared fresh on each day of dosing.
Ocular tissue samples from both eyes of each animal were collected and weights were recorded. Plasma and ocular tissue sample concentrations of Compound 1 were determined by LC-MS/MS.
Animals were anesthetized for ocular (topical) and intravitreal dosing following the 12IA7 IACUC protocol. Each rabbit received a bolus dose of test formulation either via topical ocular administration 3 times daily on Days 1 and 2 (at 0, 6, and 12 hours), and once on Day 3 (at 0 hours) into both eyes; via intravitreal administration into both eyes once on Day 1 (at 0 hours); or via subcutaneous administration 2 times daily on Days 1 and 2 (at 0 and 8 hours) and once daily on Day 3 (at 0 hours). Doses were given within an approximately 1 hour window each day where applicable.
On Day 1, for intravitreal administration, or on Day 3, for topical ocular and subcutaneous administration, at the appropriate ocular tissue collection time points, animals were euthanized and both eyes were enucleated immediately. Following enucleation, each eye was rinsed with phosphate-buffered saline. Ocular tissue samples from both eyes of each animal were collected at predetermined time points and weights were recorded. All the samples were frozen immediately on dry ice, and stored at −60° C. to −80° C. pending bioanalysis.
An LC-MS/MS method was developed for the determination of Compound 1 in rabbit aqueous tissues (plasma, aqueous and vitreous humor) and solid ocular tissue samples. A pre-study standard curve was analyzed to determine the specificity, range, and lower limit of quantitation of the method. Plasma and tissue homogenate study samples were extracted and analyzed. All the samples were treated identically to the standards.
One eight-point standard curve was used in each analytical batch. To be accepted, each batch must have had at least five of eight standards with accuracy within ±20% of nominal, except at the lower limit of quantification (LLOQ), where ±25% was acceptable.

[1] = Iris, 4 hr, subcutaneous 5 mg/kg/dose (Group 2), sodium salt
[2] = Iris, 4 hr, topical ocular 1.2 mg/eye (Group 1), sodium salt
[3] = Retina, 0.5 hr, subcutaneous 5 mg/kg/dose (Group 2), sodium salt
[4] = Retina, 0.5 hr, topical ocular 1.2 mg/eye (Group 1), sodium salt
[5] = Retina, 1 hr, subcutaneous 5 mg/kg/dose (Group 2), sodium salt
[6] = Retina, 1 hr, topical ocular 1.2 mg/eye (Group 1), sodium salt
[7] = Retina, 2 hr, subcutaneous 5 mg/kg/dose (Group 2), sodium salt
[8] = Retina, 4 hr, subcutaneous 5 mg/kg/dose (Group 2), sodium salt
[9] = Retina, 4 hr, topical ocular 1.2 mg/eye (Group 1), sodium salt

COC(=O)N[C@@H](Cc1ccccc1)C(=O)N[C@@H](Cc1ccc(NS(=O)(=O)O)cc1)c1csc(-c2cccs2)n1 [Compound 1 sodium salt]
Average (Iris, 2 hr, subcutaneous 5 mg/kg/dose (Group 2), sodium salt): 29.7 ng/g | Average (Iris, 2 hr, topical ocular 1.2 mg/eye (Group 1), sodium salt): 51.9 ng/g | Average [1]: 30.4 ng/g | Conc. (ng/g) OD [1]: 33.8 ng/g | Conc. (ng/g) OS [1]: 34.1 ng/g | Conc. (ng/mL) OD [1]: 2.12 ng/mL and 3.07 ng/mL | Average [2]: 261 ng/g | Conc. (ng/g) OD [2]: 32.7 ng/g and 27.9 ng/g | Conc. (ng/g) OS [2]: 30.7 ng/g | Conc. (ng/mL) OD [2]: 2.97 ng/mL and 2.54 ng/mL | Average [3]: 40.5 ng/g | Conc. (ng/g) OD [3]: 30.5 ng/g and 34.9 ng/g | Conc. (ng/g) OS [3]: 48.0 ng/g and 48.7 ng/g | Conc. (ng/mL) OD [3]: 2.77 ng/mL and 3.17 ng/mL | Conc. (ng/mL) OS [3]: 4.36 ng/mL and 4.43 ng/mL | Average [4]: 25.6 ng/g | Conc. (ng/g) OS [4]: 33.7 ng/g and 33.1 ng/g | Conc. (ng/mL) OS [4]: 3.06 ng/mL and 3.01 ng/mL | Average [5]: 32.6 ng/g | Conc. (ng/g) OD [5]: 22.4 ng/g and 18.3 ng/g | Conc. (ng/g) OS [5]: 43.2 ng/g and 46.4 ng/g | Conc. (ng/mL) OD [5]: 2.04 ng/mL and 1.66 ng/mL | Conc. (ng/mL) OS [5]: 3.93 ng/mL and 4.22 ng/mL | Average [6]: 59.2 ng/g | Conc. (ng/g) OD [6]: 76.9 ng/g and 85.9 ng/g | Conc. (ng/mL) OD [6]: 6.99 ng/mL and 7.81 ng/mL | Average [7]: 16.4 ng/g | Conc. (ng/g) OD [7]: 15.0 ng/g | Conc. (ng/g) OS [7]: 17.8 ng/g | Average (Retina, 2 hr, topical ocular 1.2 mg/eye (Group 1), sodium salt): 48.3 ng/g | Average [8]: 19.7 ng/g | Conc. (ng/g) OD [8]: 19.7 ng/g | Conc. (ng/mL) OS [8]: BLOQ | Average [9]: 405 ng/g | Conc. (ng/g) OS [9]: 64.8 ng/g | Choroid Conc. OS (6.0 hr): 105000 ng/mL and 44000 ng/mL | Choroid Conc. OD (6.0 hr): 164000 ng/mL and 31500 ng/mL | Choroid Conc. OS (24 hr): 9890 ng/mL and 10400 ng/mL | Choroid Conc. OD (24 hr): 11800 ng/mL and 18400 ng/mL | Choroid Conc. OS (48 hr): 3740 ng/mL and 2790 ng/mL | Choroid Conc. OD (48 hr): 3480 ng/mL and 4040 ng/mL | Choroid Conc. OS (72 hr): 282 ng/mL and 290 ng/mL | Choroid Conc. OD (72 hr): 107 ng/mL and 311 ng/mL | Choroid tissue Conc. Avg. (6.0 hr): 947375 ng/g | Choroid tissue Conc. OS (6.0 hr): 1155000 ng/g and 484000 ng/g | Choroid tissue Conc. OD (6.0 hr): 1804000 ng/g and 346500 ng/g | Choroid tissue Conc. Avg. (24 hr): 138848 ng/g | Choroid tissue Conc. OS (24 hr): 108790 ng/g and 114400 ng/g | Choroid tissue Conc. OD (24 hr): 129800 ng/g and 202400 ng/g | Choroid tissue Conc. Avg. (48 hr): 38638 ng/g | Choroid tissue Conc. OS (48 hr): 41140 ng/g and 30690 ng/g | Choroid tissue Conc. OD (48 hr): 38280 ng/g and 44440 ng/g | Choroid tissue Conc. Avg. (72 hr): 2723 ng/g | Choroid tissue Conc. OS (72 hr): 3102 ng/g and 3190 ng/g | Choroid tissue Conc. OD (72 hr): 1177 ng/g and 3421 ng/g | Cornea Conc. OS (6.0 hr): 6940 ng/mL and 6030 ng/mL | Cornea Conc. OD (6.0 hr): 6300 ng/mL and 6710 ng/mL | Cornea Conc. OS (24 hr): 1560 ng/mL and 1930 ng/mL | Cornea Conc. OD (24 hr): 2180 ng/mL and 2940 ng/mL | Cornea Conc. OS (48 hr): 662 ng/mL and 487 ng/mL | Cornea Conc. OD (48 hr): 1050 ng/mL and 538 ng/mL | Cornea Conc. OS (72 hr): 20.1 ng/mL and 58.1 ng/mL | Cornea Conc. OD (72 hr): 18.0 ng/mL and 56.9 ng/mL | Cornea tissue Conc. Avg. (6.0 hr): 71445 ng/g | Cornea tissue Conc. OS (6.0 hr): 76340 ng/g and 66330 ng/g | Cornea tissue Conc. OD (6.0 hr): 69300 ng/g and 73810 ng/g | Cornea tissue Conc. Avg. (24 hr): 23678 ng/g | Cornea tissue Conc. OS (24 hr): 17160 ng/g and 21230 ng/g | Cornea tissue Conc. OD (24 hr): 23980 ng/g and 32340 ng/g | Cornea tissue Conc. Avg. (48 hr): 7527 ng/g | Cornea tissue Conc. OS (48 hr): 7282 ng/g and 5357 ng/g | Cornea tissue Conc. OD (48 hr): 11550 ng/g and 5918 ng/g | Cornea tissue Conc. Avg. (72 hr): 421 ng/g | Cornea tissue Conc. OS (72 hr): 221 ng/g and 639 ng/g | Cornea tissue Conc. OD (72 hr): 198 ng/g and 626 ng/g | distribution among iris, retina, choroid, cornea (FIG. 15) (intravitreal 1.55 mg/kg, sodium salt): generally higher in the retina and choroid | Iris Conc. OS (6.0 hr): 34000 ng/mL and 30600 ng/mL | Iris Conc. OD (6.0 hr): 35500 ng/mL and 27800 ng/mL | Iris Conc. OS (24 hr): 7610 ng/mL and 25900 ng/mL | Iris Conc. OD (24 hr): 6890 ng/mL and 11000 ng/mL | Iris Conc. OS (48 hr): 1960 ng/mL and 2780 ng/mL | Iris Conc. OD (48 hr): 2380 ng/mL and 1820 ng/mL | Iris Conc. OS (72 hr): 225 ng/mL and 59.5 ng/mL | Iris Conc. OD (72 hr): 169 ng/mL and 110 ng/mL | Iris tissue Conc. Avg. (6.0 hr): 351725 ng/g | Iris tissue Conc. OS (6.0 hr): 374000 ng/g and 336600 ng/g | Iris tissue Conc. OD (6.0 hr): 390500 ng/g and 305800 ng/g | Iris tissue Conc. Avg. (24 hr): 141350 ng/g | Iris tissue Conc. OS (24 hr): 83710 ng/g and 284900 ng/g | Iris tissue Conc. OD (24 hr): 75790 ng/g and 121000 ng/g | Iris tissue Conc. Avg. (48 hr): 24585 ng/g | Iris tissue Conc. OS (48 hr): 21560 ng/g and 30580 ng/g | Iris tissue Conc. OD (48 hr): 26180 ng/g and 20020 ng/g | Iris tissue Conc. Avg. (72 hr): 1550 ng/g | Iris tissue Conc. OS (72 hr): 2475 ng/g and 655 ng/g | Iris tissue Conc. OD (72 hr): 1859 ng/g and 1210 ng/g | Retina Conc. OS (6.0 hr): 41100 ng/mL and 82300 ng/mL | Retina Conc. OD (6.0 hr): 39200 ng/mL and 119000 ng/mL | Retina Conc. OS (24 hr): 28000 ng/mL and 3700 ng/mL | Retina Conc. OD (24 hr): 29200 ng/mL and 35200 ng/mL | Retina Conc. OS (48 hr): 6030 ng/mL and 6530 ng/mL | Retina Conc. OD (48 hr): 6490 ng/mL and 7360 ng/mL | Retina Conc. OS (72 hr): 370 ng/mL and 484 ng/mL | Retina Conc. OD (72 hr): 750 ng/mL and 598 ng/mL | Retina tissue Conc. Avg. (6.0 hr): 774400 ng/g | Retina tissue Conc. OS (6.0 hr): 452100 ng/g and 905300 ng/g | Retina tissue Conc. OD (6.0 hr): 431200 ng/g and 1309000 ng/g | Retina tissue Conc. Avg. (24 hr): 355850 ng/g | Retina tissue Conc. OS (24 hr): 308000 ng/g and 407000 ng/g | Retina tissue Conc. OD (24 hr): 321200 ng/g and 387200 ng/g | Retina tissue Conc. Avg. (48 hr): 72628 ng/g | Retina tissue Conc. OS (48 hr): 66330 ng/g and 71830 ng/g | Retina tissue Conc. OD (48 hr): 71390 ng/g and 80960 ng/g | Retina tissue Conc. Avg. (72 hr): 6056 ng/g | Retina tissue Conc. OS (72 hr): 4070 ng/g and 5324 ng/g | Retina tissue Conc. OD (72 hr): 8250 ng/g and 6578 ng/g | distribution among iris, retina, choroid, cornea (FIG. 13) (subcutaneous 5 mg/kg/dose, sodium salt): generally higher in the iris and choroid | ocular tissue concentrations, sodium salt solution compared to free acid suspension (subcutaneous and intravitreal administration): generally higher | distribution among iris, retina, choroid, cornea (FIG. 12) (topical ocular administration at 0.7 mg/kg/dose): generally higher in the cornea
